Source: patent publication US4559344A, “Pyridine-pyrimidinone derivatives, a process for their production and H -antagonist medicament containing these compounds” (Ludwig Heumann & Co. GmbH, priority 1983, dated 1985)

Tests used:
histamine-H2-receptors = biological target: T1, histamine-H2-receptors (Cavia porcellus, UniProt P47747); experiment: pA2 determination of H2-antagonistic activity in vitro on the isolated atrium of guinea pigs; settings: isolated guinea pig atrium
T1 construct: in vitro on the isolated atrium of guinea pigs; from tissue; host or cells: isolated guinea pig atrium
Source text: A recognized method of measuring H2 -antagonistic activity is based on determination of the pA2 -values in vitro on the isolated atrium of guinea pigs (cf. Ariens, Molecular Pharmacology, Vol. 1, Academic Press, New York, 1964).

[1] = background statement; cited from earlier work

T1 sequence (P47747 whole entry): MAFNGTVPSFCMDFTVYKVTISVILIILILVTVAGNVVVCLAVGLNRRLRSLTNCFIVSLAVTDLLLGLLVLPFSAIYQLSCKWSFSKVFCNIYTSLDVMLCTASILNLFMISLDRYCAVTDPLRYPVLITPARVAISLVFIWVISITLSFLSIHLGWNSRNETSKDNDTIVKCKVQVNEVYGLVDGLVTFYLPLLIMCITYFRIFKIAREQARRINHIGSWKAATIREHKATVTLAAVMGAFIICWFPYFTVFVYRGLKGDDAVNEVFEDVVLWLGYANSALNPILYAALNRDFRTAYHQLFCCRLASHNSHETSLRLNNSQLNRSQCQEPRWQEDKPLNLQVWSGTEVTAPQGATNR

Row | Kb (histamine-H2-receptors) | SMILES | half life [1]
1 | 21.9 nM | Cc1ccc(Cc2cnc(CCCCOc3cccc(CN4CCCCC4)c3)[nH]c2=O)cn1 [Example 1, 5-(6-methylpyrid-3-ylmethyl)-2-[4-[3-(1-piperidylmethyl)-phenoxy]-butyl]-pyrimidin-4-one] | –
2 | – | CN/C(=N/CCSCc1nc[nH]c1C)NC#N [Cimetidine, cimetidine] | relatively short half life
